Source: patent publication US7691836B2, “Progesterone receptor modulators” (N.V. Organon, priority 2004, dated 2010)

Columns and labels:
progesterone receptor-B [1] = molecular target: T1, progesterone receptor-B (Homo sapiens, UniProt P06401); assay: Progesterone receptor-B transactivation, antagonistic mode (inhibition of luciferase transactivation by inducer, CHO cells); format: cell-based; settings: for Emax: CHO, read-out: PRBant Eff (%); for EC50: in the presence of 0.1 nM inducer (16α)-16-ethyl-21-hydroxy-19-norpregn-4-ene-3,20-dione, read-out: PRBant EC50
T1 sequence (P06401 1-933): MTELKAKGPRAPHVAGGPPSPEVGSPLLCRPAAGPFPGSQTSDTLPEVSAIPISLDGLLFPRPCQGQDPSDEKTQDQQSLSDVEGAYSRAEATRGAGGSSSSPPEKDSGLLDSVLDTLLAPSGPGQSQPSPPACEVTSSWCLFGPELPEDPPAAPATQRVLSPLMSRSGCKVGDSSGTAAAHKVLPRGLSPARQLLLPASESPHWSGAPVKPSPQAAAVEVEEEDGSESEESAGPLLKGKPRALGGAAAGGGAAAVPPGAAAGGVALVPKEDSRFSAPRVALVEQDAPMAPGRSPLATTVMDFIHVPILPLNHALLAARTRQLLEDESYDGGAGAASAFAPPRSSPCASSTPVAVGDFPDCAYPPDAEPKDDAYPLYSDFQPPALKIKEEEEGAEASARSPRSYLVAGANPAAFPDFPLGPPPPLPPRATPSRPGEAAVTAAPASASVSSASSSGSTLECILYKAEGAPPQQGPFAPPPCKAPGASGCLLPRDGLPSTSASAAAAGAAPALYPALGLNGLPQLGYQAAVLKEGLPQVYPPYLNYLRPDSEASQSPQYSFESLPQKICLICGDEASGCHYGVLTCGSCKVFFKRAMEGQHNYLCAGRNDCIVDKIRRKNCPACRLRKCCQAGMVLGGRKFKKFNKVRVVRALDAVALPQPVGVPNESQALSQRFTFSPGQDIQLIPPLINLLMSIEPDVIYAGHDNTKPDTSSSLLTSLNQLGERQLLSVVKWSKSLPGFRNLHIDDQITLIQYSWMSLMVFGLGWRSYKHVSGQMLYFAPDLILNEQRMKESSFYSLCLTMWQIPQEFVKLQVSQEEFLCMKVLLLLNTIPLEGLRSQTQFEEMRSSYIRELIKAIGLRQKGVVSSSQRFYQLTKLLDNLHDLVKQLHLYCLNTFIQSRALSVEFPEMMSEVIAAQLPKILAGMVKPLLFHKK
Experimental: In the antagonistic mode, testing must result in an intrinsic activity of between about 85% and about 15% of the maximal activity when (6β,11β,17β)-11-[4-(dimethylamino)phenyl]-4′,5′-dihydro-6-methylspiro[estra-4,9-diene-17,2′(3′H)-furan]-3-one is used as a reference.
(§1) The progestagenic activity of a compound of the invention (EC50 and intrinsic agonistic activity) was determined in an in vitro bioassay of Chinese hamster ovary (CHO) cells as described by W. G. E. J. Schoonen et al. (Anal. Biochem. 261 (1998), 222-224). […] The efficacy of the antagonistic effect was expressed as the percentage of the effect produced by a standard antagonist, (6β,11β,17β)-11-[4-(dimethylamino)phenyl]-4′,5′-dihydro-6-methylspiro[estra-4,9-diene-17,2′(3′H)-furan]-3-one.
(§2) It will be recognized by those skilled in the art that, in the setting described above, the EC50 determined is more or less absolute and depends on the intrinsic property of the tested compound itself, however, the IC50 depends on the amount and agonistic EC50 of the inducer as well as on the intrinsic property of the tested compound itself. Thus, with the same amount of inducer, a relatively strong antagonist will be able to produce a measurable IC50 whereas a relatively weak antagonist may fail to produce a detectable result.

progesterone receptor-B [2] = molecular target: T1, progesterone receptor-B; assay: Progesterone receptor-B transactivation, agonistic mode (CHO cells, luciferase); format: cell-based; settings: for EC50: CHO cells, agonistic mode, read-out: PRBagoEC50; for Emax: CHO, read-out: PRBago Eff (%)
From the text: For selecting compounds of the subject invention with a mixed modulating effect on the progesterone receptor, testing in the agonistic mode must result in an intrinsic activity of between about 15% and about 85% of the maximal activity when (16α)-16-ethyl-21-hydroxy-19-norpregn-4-ene-3,20-dione is used as a reference. Moreover, this maximal agonistic activity should be reached at a concentration of 10^−6 or less, and preferably at a concentration of 10^−8 or less.
as §1, §2

[3] = intrinsic antagonistic activity, percentage of effect of standard antagonist (6β,11β,17β)-11-[4-(dimethylamino)phenyl]-4′,5′-dihydro-6-methylspiro[estra-4,9-diene-17,2′(3′H)-furan]-3-one, 0.1 nM inducer
[4] = intrinsic agonistic activity, relative to reference (16α)-16-ethyl-21-hydroxy-19-norpregn-4-ene-3,20-dione

Emax (progesterone receptor-B [1]; [3])	EC50 (progesterone receptor-B [1])	EC50 (progesterone receptor-B [2])	Emax (progesterone receptor-B [2]; [4])	PRBant Eff (%) (progesterone receptor-B [1]; [3])	PRBago Eff (%) (progesterone receptor-B [2]; [4])	SMILES
46.4%	0.267 nM	0.2 nM	49.2%	–	–	C[C@@H]1C[C@H]2[C@@H]3CCC4=CC(=O)CCC4=C3[C@@H](c3ccc(-c4cccnc4)cc3)C[C@]2(C)[C@H]1C(=O)C1CC1 [Example 1, (11β,16α,17β)-17-cyclopropylcarbonyl-16-methyl-11-[4-(3-pyridinyl)-phenyl]estra-4,9-dien-3-one]
–	3.3 nM	0.34 nM	–	47%	44.5%	C[C@@H]1C[C@H]2[C@@H]3CCC4=CC(=O)CCC4=C3[C@@H](c3ccc(-c4cccnc4)cc3)C[C@]2(C)[C@H]1C(=O)C1CC1.Cl [Example 2, (11β,16α,17β)-17-cyclopropylcarbonyl-16-methyl-11-[4-(3-pyridinyl)-phenyl]estra-4,9-dien-3-one hydrochloride]
59%	0.628 nM	0.12 nM	41.5%	–	–	COc1ccc(-c2ccc([C@H]3C[C@@]4(C)[C@@H](C[C@@H](C)[C@@H]4C(=O)C4CC4)[C@@H]4CCC5=CC(=O)CCC5=C43)cc2)cn1 [Example 3, (11β,16α,17β)-17-cyclopropylcarbonyl-11-[4-(6-methoxypyridin-3-yl)phenyl]-16-methylestra 4,9-dien-3-one]
43%	0.47 nM	1.1 nM	46.5%	–	–	C[C@@H]1C[C@H]2[C@@H]3CCC4=CC(=O)CCC4=C3[C@@H](c3ccc(-c4ccc(Cl)nc4)cc3)C[C@]2(C)[C@H]1C(=O)C1CC1 [Example 4, (11β,16α,17β)-11-[4-(6-chloropyridin-3-yl)phenyl]-17-cyclopropyl-carbonyl-16-methylestra-4,9-dien-3-one]
50%	8.48 nM	0.49 nM	50.5%	–	–	C[C@@H]1C[C@H]2[C@@H]3CCC4=CC(=O)CCC4=C3[C@@H](c3ccc(-c4ccc(F)nc4)cc3)C[C@]2(C)[C@H]1C(=O)C1CC1 [Example 5, (11β,16α,17β)-17-cyclopropylcarbonyl-11-[4-(6-fluoropyridin-3-yl)phenyl]-16-methylestra-4,9-dien-3-one]
34%	28 nM	1.3 nM	54%	–	–	COc1cncc(-c2ccc([C@H]3C[C@@]4(C)[C@@H](C[C@@H](C)[C@@H]4C(=O)C4CC4)[C@@H]4CCC5=CC(=O)CCC5=C43)cc2)c1 [Example 6, (11β,16α,17β)-17-cyclopropylcarbonyl-16-methyl-11-[4-(5-methoxy-pyridin-3-yl)phenyl]estra-4,9-dien-3-one]
24%	3.14 nM	1 nM	50%	–	–	C[C@@H]1C[C@H]2[C@@H]3CCC4=CC(=O)CCC4=C3[C@@H](c3ccc(-c4cnc5ccccc5c4)cc3)C[C@]2(C)[C@H]1C(=O)C1CC1 [Example 7, (11β,16α,17β)-17-cyclopropylcarbonyl-16-methyl-11-[4-(3-quinolidinyl)phenyl]estra-4,9-dien-3-one]
37%	3.64 nM	0.36 nM	50.5%	–	–	C[C@@H]1C[C@H]2[C@@H]3CCC4=CC(=O)CCC4=C3[C@@H](c3ccc(-c4ccnnc4)cc3)C[C@]2(C)[C@H]1C(=O)C1CC1 [Example 8, (11β,16α,17β)-17-cyclopropylcarbonyl-16-methyl-11-[4-(4-pyridazinyl)phenyl]estra-4,9-dien-3-one]
35%	1.3 nM	1.13 nM	54%	–	–	C[C@@H]1C[C@H]2[C@@H]3CCC4=CC(=O)CCC4=C3[C@@H](c3ccc(-c4cnccn4)cc3)C[C@]2(C)[C@H]1C(=O)C1CC1 [Example 9, (11β,16α,17β)-17-cyclopropylcarbonyl-16-methyl-11-[4-(pyrazin-2-yl)phenyl]estra-4,9-dien-3-one]
32.5%	14.8 nM	2.6 nM	49.2%	–	–	C[C@@H]1C[C@H]2[C@@H]3CCC4=CC(=O)CCC4=C3[C@@H](c3ccc(-c4ccccn4)cc3)C[C@]2(C)[C@H]1C(=O)C1CC1 [Example 10, (11β,16α,17β)-17-cyclopropylcarbonyl-16-methyl-11-[4-(2-pyridinyl)phenyl]estra-4,9-dien-3-one]
35%	0.8 nM	1.7 nM	56%	–	–	Cc1ccc(-c2ccc([C@H]3C[C@@]4(C)[C@@H](C[C@@H](C)[C@@H]4C(=O)C4CC4)[C@@H]4CCC5=CC(=O)CCC5=C43)cc2)nc1 [Example 11]
26.5%	2.5 nM	4 nM	56%	–	–	C[C@@H]1C[C@H]2[C@@H]3CCC4=CC(=O)CCC4=C3[C@@H](c3ccc(-c4ccncc4)cc3)C[C@]2(C)[C@H]1C(=O)C1CC1 [Example 12, (11β,16α,17β)-17-cyclopropylcarbonyl-16-methyl-11-[4-(4-pyridinyl)phenyl]estra-4,9-dien-3-one]
38%	0.61 nM	0.66 nM	46.8%	–	–	C=C[C@@H]1C[C@H]2[C@@H]3CCC4=CC(=O)CCC4=C3[C@@H](c3ccc(-c4cccnc4)cc3)C[C@]2(C)[C@H]1C(=O)C1CC1 [Example 13, (11β,16α,17β)-17-cyclopropylcarbonyl-16-ethenyl-11-[4-(3-pyridinyl)phenyl]estra-4,9-dien-3-one]
34.5%	29 nM	5.7 nM	49.8%	–	–	C[C@]12C[C@H](c3ccc(-c4cccnc4)cc3)C3=C4CCC(=O)C=C4CC[C@H]3[C@@H]1C[C@@H](/C=C/c1ccccc1)[C@@H]2C(=O)C1CC1 [Example 14, [11β,16α(E),17β]-17-cyclopropylcarbonyl-16-(2-phenylethenyl)-11-[4-(3-pyridinyl)phenyl]estra-4,9-dien-3-one]
44.5%	0.98 nM	0.74 nM	41.4%	–	–	C=C[C@@H]1C[C@H]2[C@@H]3CCC4=CC(=O)CCC4=C3[C@@H](c3ccc(-c4ccc(OC)nc4)cc3)C[C@]2(C)[C@H]1C(=O)C1CC1 [Example 15, (11β,16α,17β)-17-(cyclopropylcarbonyl)-16-ethenyl-11-[4-(6-methoxypyridin-3-yl)phenyl]estra-4,9-dien-3-one]
53%	0.596 nM	0.23 nM	34%	–	–	CC[C@@H]1C[C@H]2[C@@H]3CCC4=CC(=O)CCC4=C3[C@@H](c3ccc(-c4cccnc4)cc3)C[C@]2(C)[C@H]1C(=O)C1CC1 [Example 16, (11β,16α,17β)-17-cyclopropylcarbonyl-16-ethyl-11-[4-(3-pyridinyl)-phenyl]-estra-4,9-dien-3-one]
51.7%	7.89 nM	1.3 nM	42%	–	–	CC[C@@H]1C[C@H]2[C@@H]3CCC4=CC(=O)CCC4=C3[C@@H](c3ccc(-c4ccc(OC)nc4)cc3)C[C@]2(C)[C@H]1C(=O)C1CC1 [Example 17, (11β,16α,17β)-17-cyclopropylcarbonyl-16-ethyl-11-[4-(6-methoxy-pyridin-3-yl)phenyl]-estra-4,9-dien-3-one]
